ChEMBL document CHEMBL3046257, “Response of sweet maize (Zea mays L.) hybrids to halosulfuron” (Crop Prot, 2008)

Key:
Type in all cases: organism-based
[1] = system: Zea mays; assay: Toxicity in Zea mays Empire (maize) assessed as cob size at 25 g ai/ha applied shortly post-emergence at three to five-leaf stage using backpack sprayer (reference value: 304 g); details: in vivo, other
[2] = system: Zea mays; assay: Toxicity in Zea mays GSS9299 (maize) assessed as visible injury at 50 g ai/ha applied shortly post-emergence at three to five-leaf stage using backpack sprayer measured after 14 days; details: in vivo, other, 336 h
[3] = system: Zea mays; assay: Toxicity in Zea mays GSS9299 (maize) assessed as marketable yield at 50 g ai/ha applied shortly post-emergence at three to five-leaf stage using backpack sprayer (reference value: 13.2 T/ha ); details: in vivo, other
[4] = system: Zea mays; assay: Toxicity in Zea mays Empire (maize) assessed as plant height at 25 g ai/ha applied shortly post-emergence at three to five-leaf stage using backpack sprayer measured after 21 days (Rvb =73 cm); details: in vivo, other, 504 h
[5] = system: Zea mays; assay: Toxicity in Zea mays GG446 (maize) assessed as visible injury at 50 g ai/ha applied shortly post-emergence at three to five-leaf stage using backpack sprayer measured after 28 days; details: in vivo, other, 672 h
[6] = system: Zea mays; assay: Toxicity in Zea mays GSS9299 (maize) assessed as visible injury at 50 g ai/ha applied shortly post-emergence at three to five-leaf stage using backpack sprayer measured after 28 days; details: in vivo, other, 672 h
[7] = system: Zea mays; assay: Toxicity in Zea mays GG446 (maize) assessed as visible injury at 25 g ai/ha applied shortly post-emergence at three to five-leaf stage using backpack sprayer measured after 14 days; details: in vivo, other, 336 h
[8] = system: Zea mays; assay: Toxicity in Zea mays GH2298 (maize) assessed as plant height at 25 g ai/ha applied shortly post-emergence at three to five-leaf stage using backpack sprayer measured after 21 days (Rvb =80 cm); details: in vivo, other, 504 h
[9] = system: Zea mays; assay: Toxicity in Zea mays GH2547 (maize) assessed as visible injury at 25 g ai/ha applied shortly post-emergence at three to five-leaf stage using backpack sprayer measured after 28 days; details: in vivo, other, 672 h
[10] = system: Zea mays; assay: Toxicity in Zea mays GH2684 (maize) assessed as visible injury at 50 g ai/ha applied shortly post-emergence at three to five-leaf stage using backpack sprayer measured after 28 days; details: in vivo, other, 672 h
[11] = system: Zea mays; assay: Toxicity in Zea mays GSS9299 (maize) assessed as plant height at 25 g ai/ha applied shortly post-emergence at three to five-leaf stage using backpack sprayer measured after 21 days (Rvb =69 cm); details: in vivo, other, 504 h
[12] = system: Zea mays; assay: Toxicity in Zea mays GH2041 (maize) assessed as marketable yield at 50 g ai/ha applied shortly post-emergence at three to five-leaf stage using backpack sprayer (reference value: 12.2 T/ha ); details: in vivo, other
[13] = system: Zea mays; assay: Toxicity in Zea mays GH2684 (maize) assessed as plant height at 50 g ai/ha applied shortly post-emergence at three to five-leaf stage using backpack sprayer measured after 21 days (Rvb =73 cm); details: in vivo, other, 504 h
[14] = system: Zea mays; assay: Toxicity in Zea mays GG446 (maize) assessed as plant height at 25 g ai/ha applied shortly post-emergence at three to five-leaf stage using backpack sprayer measured after 21 days (reference value: 85 cm); details: in vivo, other, 504 h
[15] = system: Zea mays; assay: Toxicity in Zea mays GH2298 (maize) assessed as visible injury at 25 g ai/ha applied shortly post-emergence at three to five-leaf stage using backpack sprayer measured after 14 days; details: in vivo, other, 336 h
[16] = system: Zea mays; assay: Toxicity in Zea mays GG446 (maize) assessed as visible injury at 25 g ai/ha applied shortly post-emergence at three to five-leaf stage using backpack sprayer measured after 28 days; details: in vivo, other, 672 h
[17] = system: Zea mays; assay: Toxicity in Zea mays GG446 (maize) assessed as visible injury at 25 g ai/ha applied shortly post-emergence at three to five-leaf stage using backpack sprayer measured after 7 days; details: in vivo, other, 168 h
[18] = system: Zea mays; assay: Toxicity in Zea mays GH2298 (maize) assessed as cob size at 25 g ai/ha applied shortly post-emergence at three to five-leaf stage using backpack sprayer (reference value: 307 g); details: in vivo, other
[19] = system: Zea mays; assay: Toxicity in Zea mays GH2684 (maize) assessed as visible injury at 50 g ai/ha applied shortly post-emergence at three to five-leaf stage using backpack sprayer measured after 14 days; details: in vivo, other, 336 h
[20] = system: Zea mays; assay: Toxicity in Zea mays GG214 (maize) assessed as plant height at 50 g ai/ha applied shortly post-emergence at three to five-leaf stage using backpack sprayer measured after 21 days (Rvb =81 cm); details: in vivo, other, 504 h
[21] = system: Zea mays; assay: Toxicity in Zea mays GH2298 (maize) assessed as visible injury at 50 g ai/ha applied shortly post-emergence at three to five-leaf stage using backpack sprayer measured after 7 days; details: in vivo, other, 168 h
[22] = system: Zea mays; assay: Toxicity in Zea mays GH2547 (maize) assessed as cob size at 50 g ai/ha applied shortly post-emergence at three to five-leaf stage using backpack sprayer (reference value: 315 g); details: in vivo, other
[23] = system: Zea mays; assay: Toxicity in Zea mays GH2041 (maize) assessed as plant height at 50 g ai/ha applied shortly post-emergence at three to five-leaf stage using backpack sprayer measured after 21 days (Rvb =80 cm); details: in vivo, other, 504 h
[24] = system: Zea mays; assay: Toxicity in Zea mays GH2684 (maize) assessed as visible injury at 25 g ai/ha applied shortly post-emergence at three to five-leaf stage using backpack sprayer measured after 7 days; details: in vivo, other, 168 h
[25] = system: Zea mays; assay: Toxicity in Zea mays GSS9299 (maize) assessed as visible injury at 25 g ai/ha applied shortly post-emergence at three to five-leaf stage using backpack sprayer measured after 7 days; details: in vivo, other, 168 h
[26] = system: Zea mays; assay: Toxicity in Zea mays GSS9299 (maize) assessed as visible injury at 50 g ai/ha applied shortly post-emergence at three to five-leaf stage using backpack sprayer measured after 7 days; details: in vivo, other, 168 h
[27] = system: Zea mays; assay: Toxicity in Zea mays GG214 (maize) assessed as visible injury at 50 g ai/ha applied shortly post-emergence at three to five-leaf stage using backpack sprayer measured after 14 days; details: in vivo, other, 336 h
[28] = system: Zea mays; assay: Toxicity in Zea mays GH2041 (maize) assessed as cob size at 50 g ai/ha applied shortly post-emergence at three to five-leaf stage using backpack sprayer (reference value: 285 g); details: in vivo, other
[29] = system: Zea mays; assay: Toxicity in Zea mays GG214 (maize) assessed as visible injury at 25 g ai/ha applied shortly post-emergence at three to five-leaf stage using backpack sprayer measured after 14 days; details: in vivo, other, 336 h
[30] = system: Zea mays; assay: Toxicity in Zea mays Empire (maize) assessed as cob size at 50 g ai/ha applied shortly post-emergence at three to five-leaf stage using backpack sprayer (reference value: 304 g); details: in vivo, other
[31] = system: Zea mays; assay: Toxicity in Zea mays GG214 (maize) assessed as plant height at 25 g ai/ha applied shortly post-emergence at three to five-leaf stage using backpack sprayer measured after 21 days (Rvb =81 cm); details: in vivo, other, 504 h
[32] = system: Zea mays; assay: Toxicity in Zea mays GH2547 (maize) assessed as visible injury at 50 g ai/ha applied shortly post-emergence at three to five-leaf stage using backpack sprayer measured after 7 days; details: in vivo, other, 168 h
[33] = system: Zea mays; assay: Toxicity in Zea mays GH2041 (maize) assessed as visible injury at 50 g ai/ha applied shortly post-emergence at three to five-leaf stage using backpack sprayer measured after 7 days; details: in vivo, other, 168 h

COc1cc(OC)nc(NC(=O)NS(=O)(=O)c2c(C(=O)O)c(Cl)nn2C)n1 [HALOSULFURON]
Activity [1]: 299 g | Activity [2]: 2% | Crop_yield [3]: 12.8 tons/ha | Activity [4]: 69 cm | Activity [5]: 0% | Activity [6]: 1% | Activity [7]: 0% | Activity [8]: 76 cm | Activity [9]: 0% | Activity [10]: 1% | Activity [11]: 68 cm | Crop_yield [12]: 11.3 tons/ha | Activity [13]: 73 cm | Activity [14]: 81 cm | Activity [15]: 2% | Activity [16]: 0% | Activity [17]: 0% | Activity [18]: 315 g | Activity [19]: 5% | Activity [20]: 75 cm | Activity [21]: 6% | Activity [22]: 312 g | Activity [23]: 77 cm | Activity [24]: 4% | Activity [25]: 1% | Activity [26]: 2% | Activity [27]: 1% | Activity [28]: 267 g | Activity [29]: 0% | Activity [30]: 289 g | Activity [31]: 77 cm | Activity [32]: 2% | Activity [33]: 2%
